Experimental data reported in patent US7759313B2, “Induction method for cell differentiation” (Obschetstvo S Ogranichennoi Otvetstvennostiyu …, priority 2002, dated 2010).
Values joined by “and” are separate entries in the source; they are usually repeats but may differ in a detail not shown here. Equal entries are not always repeated.

Experiments:
[1] = tested on: murine B-16 melanoma cells; assay: Initial rate of cell proliferation (IRCP), B-16 cells; format: cell-based
Description: The study was conducted on two continuous cell cultures growing in the form of a monolayer in a tissue culture (on murine B-16 melanoma cells and human M-5 melanoma cells). IN was administered at concentrations 70-700 IU/ml. Dicarbamine (D) was transferred into stock solution (1.000 μM), sterilized through filters with 0.22 μm pore diameter and then diluted to concentrations 0.01 and 1.0 μM.
The effect of preparations on cells was assessed on the basis of initial rate of cell proliferation (IRCP). This index (IRCP), which is usually called colony rate growth, was determined by numbering the number of cells in micro colonies during the first days following affection in “test” (with preparations) and “control” (without preparations) dishes, by analyzing 50 colonies in each of them. Each “point” included […] three Petri dishes with growing cell colonies in adding specific concentrations of preparations under study. Growth rate of colonies (in %) was calculated according to the formula: […]
Cell numbers in micro colonies were calculated for every “point”. Toxicity of preparations in the selected range of concentrations was judged by cell survival, which was determined by the ratio between numbers of the colonies grown in “test” and “control” dishes.

[2] = tested on: murine B-16 melanoma cells; assay: IRCP of B-16 cells, peptide derivatives at 100 μM; format: cell-based
Description: The study was conducted on a continuous cell culture of murine B-16 melanoma growing in the form of a monolayer in a tissue culture. α-Interferon, selected as a preparation of comparison, was administered at concentration 70 IU/ml.
The tested compounds were transferred into stock solution (1,000 μM), sterilized through filers with 0.22 μm pore diameter and then diluted down to a concentration of 100 μM.
The effect of compounds on cells was assessed on the basis of initial rate of cell proliferation (IRCP). This index was determined by numbering the number of cells in micro colonies during the first days following affection in “test” (with preparations) and “control” (without preparations) dishes, by analyzing 50 colonies in each of them.
Calculations of cell numbers in micro colonies were done for every “point”. Toxicity was judged by B-16 melanoma cell survival, which was determined by the ratio between numbers of the grown colonies in “test” and “control” dishes.

[3] = tested on: hematopoietic cells of the bone marrow; assay: Electronic microscopy of bone marrow of ovarian cancer patients during chemotherapy; format: in vivo, human; details: Cyclophosphane 600 mg/m^2 + Carboplatin 400 mg/m^2 along with Dicarbamine 100 mg
Description: The patients were divided into two equal groups: group I—patients who received the chemotherapy alone and group II—patients who received the chemotherapy along with Dicarbamine administration. […] The average chemotherapy course of one patient included 6 courses without Dicarbamine and 5.7 courses with Dicarbamine. In group II patients received the chemotherapy along with Dicarbamine dosing at a single dose 100 mg beginning 5 days before the first course and then until the beginning of next course at the same dose. […] Puncture biopsy of the bone marrow and peripheral blood for electronic microscopy were taken from patients prior to the chemotherapy and at the end of treatment course with Dicarbamine or without it. Fresh bone marrow puncture biopsies were placed on a slide plate and stirred many times with a stirring rod until small dense fragments were obtained. […] Semi-thin and ultra-thin slices were prepared on the LKB-III ultratome (Sweden). The semi-thin slices were stained with Methylene or Toluidine blue, ultra-thin slices were stained with an aqueous solution of uranyl acetate and lead citrate.

[4] = Hematological toxicity according to WHO in ovarian cancer patients; format: in vivo, human
Description: The effect of Dicarbamine was studied in 13 patients with stage III-IV ovarian cancer who underwent 77 courses of the chemotherapy according to the scheme: 400 mg/m^2 Carboplatin i.v. drop-wise, once +600 mg/m^2 Cyclophosphan i.v. drop-wise, once; the courses were repeated in 28 days. Dicarbamine was prescribed daily at dose 100 mg orally after meals beginning 5 days prior to the first course and then for three weeks. Dosing duration was 26 days, course dose being 2600 mg. Dicarbamine was given again 5 days prior to the second chemotherapy course, and dosing was continued for 21 days. Total duration of Dicarbamine intake during two the chemotherapy courses was 52 days.
Hematological toxicity (leukopenia, neutropenia, thrombocytopenia) was assessed in 13 patients who received 77 courses of the chemotherapy with Dicarbamine as compared with the group of 7 patients who received 25-27 courses of the chemotherapy without Dicarbamine (control).

[5] = tested on: stage III-IV ovarian cancer; assay: Efficacy of therapy after two chemotherapy courses; format: in vivo, human
Description: Efficacy of therapy was assessed in groups of patients following two courses of the chemotherapy with or without Dicarbamine according to the above described scheme. Efficacy was assessed according to the generally accepted parameters: CR—complete remission, PR—partial remission, SB—stabilization; and Progr. —progression.

[6] = Peripheral blood leukocytes formula under Cyclophosphamide; format: in vivo, mice; details: mouse, in vivo
Text: Two groups of mice are used.

[7] = vs chemotherapy without Dicarbamine

Structure (SMILES): O=C(O)CCCC(=O)NCCc1c[nH]cn1 [Dicarbamine]
- toxicity according to the survival index ([1]; B-16 cells): does not show toxicity
- Initial rate of cell proliferation ([1]; D 0.01 μM, 48 hours): 52.9%
- Initial rate of cell proliferation ([1]; D 0.01 μM, 72 hours): 61.0%
- Initial rate of cell proliferation ([1]; D 1.0 μM, 48 hours): 44.6%
- Initial rate of cell proliferation ([1]; D 1.0 μM, 72 hours): 44.6% and 43.6%
- Initial rate of cell proliferation ([1]; IN 70.0 IU/ml + D 1.0 μM, 72 hours): 26.1%
- Initial rate of cell proliferation ([1]; IN 700.0 IU/ml + D 0.01 μM, 48 hours): 24.9%
- Initial rate of cell proliferation ([1]; IN 700.0 IU/ml + D 0.01 μM, 72 hours): 22.0%
- Initial rate of cell proliferation ([1]; IN 700.0 IU/ml + D 1.0 μM, 48 hours): 21.5%
- Initial rate of cell proliferation ([1]; IN 700.0 IU/ml + D 1.0 μM, 72 hours): 16.0%
- Initial rate of cell proliferation (% cells/colony relative to the control) ([2]; 48 hours): 30.8 ± 2.8%
- Initial rate of cell proliferation (% cells/colony relative to the control) ([2]; 72 hours): 28.2 ± 2.2%
- cells with apoptosis signs in bone marrow puncture biopsies [3]: rarely observed
- Leukopenia ([4]; WHO degree 0): 7.7%
- Leukopenia, number ([4]; WHO degree 0): 6
- Neutropenia ([4]; WHO degree 0): 31.3%
- Neutropenia, number ([4]; WHO degree 0): 21
- Thrombocytopenia ([4]; WHO degree 0): 35.5%
- Thrombocytopenia, number ([4]; WHO degree 0): 27
- Leukopenia ([4]; WHO degree I): 23.3%
- Leukopenia, number ([4]; WHO degree I): 18
- Neutropenia ([4]; WHO degree I): 17.9%
- Neutropenia, number ([4]; WHO degree I): 12
- Thrombocytopenia ([4]; WHO degree I): 42.1%
- Thrombocytopenia, number ([4]; WHO degree I): 32
- Leukopenia ([4]; WHO degree II): 55.8%
- Leukopenia, number ([4]; WHO degree II): 43
- Neutropenia ([4]; WHO degree II): 34.3%
- Neutropenia, number ([4]; WHO degree II): 23
- Thrombocytopenia ([4]; WHO degree II): 13.1%
- Thrombocytopenia, number ([4]; WHO degree II): 10
- Leukopenia ([4]; WHO degree III): 12.9%
- Leukopenia, number ([4]; WHO degree III): 10
- Neutropenia ([4]; WHO degree III): 7.4%
- Neutropenia, number ([4]; WHO degree III): 5
- Thrombocytopenia ([4]; WHO degree III): 7.8%
- Thrombocytopenia, number ([4]; WHO degree III): 6
- Leukopenia ([4]; WHO degree III + IV): 12.9%
- Leukopenia, number ([4]; WHO degree III + IV): 10
- Neutropenia ([4]; WHO degree III + IV): 16.4%
- Neutropenia, number ([4]; WHO degree III + IV): 11
- Thrombocytopenia ([4]; WHO degree III + IV): 9.1%
- Thrombocytopenia, number ([4]; WHO degree III + IV): 7
- Leukopenia, number ([4]; WHO degree IV): 0
- Neutropenia ([4]; WHO degree IV): 8.9%
- Neutropenia, number ([4]; WHO degree IV): 6
- Thrombocytopenia ([4]; WHO degree IV): 1.3%
- Thrombocytopenia, number ([4]; WHO degree IV): 1
- decrease of hematological toxicity on the basis of leukopenia [4, 7]: 1.8 fold
- decrease of hematological toxicity on the basis of neutropenia [4, 7]: 2.6 fold
- decrease of hematological toxicity on the basis of thrombocytopenia [4, 7]: 2.2 fold
- CR [5]: 26.6%
- CR, number of patients [5]: 4
- PR [5]: 46.6%
- PR, number of patients [5]: 7
- Progr. [5]: 13.3%
- Progr., number of patients [5]: 2
- SB [5]: 13.5%
- SB, number of patients [5]: 2
- tumor growth control (CR+PR) [5]: 73.2%
- Myelocytes [6]: 0 in mm^3
